Results as given in patent publication US5095014A, “3-(2-chloro-4-(trifluoromethyl)phenoxy)-1-azetidine carboxamides having anticonvulsant activity” (A. H. Robins Company, Incorporated, priority 1990, dated 1992).

Key:
[1] = system: tonic seizures (electrically induced convulsions); assay: Maximal Electroshock (percent protection from tonic seizures); assay type: in vivo; conditions: mice; for ED50: Mus musculus, ip, 0.5 h, intraperitoneal, 30 minutes prior to electrical challenge
Method: (§1) The pharmacological tests used are (1) maximal electroshock and (2) pentylenetetrazole (Metrazole®) chemical challenge where the percent protection afforded by the test compounds against convulsions induced by electrical stimulus or by the drug Metrazole is determined. These test procedures are described further hereinbelow.
(§2) The pharmacological test data are expressed either as an ED50 (mg/kg) or percent protection/dose (mg/kg) for test compounds administered intraperitoneally (IP) in mice.
Adult female mice in groups of eight were administered the test drug intraperitoneally (usually 100 mg/kg initially for screening) in liquid carrier (10 mg/ml), usually physiological saline or water, 30 minutes prior to electrical challenge. Animals were challenged electrically by placing brass electrodes on the corneas and applying an electrical stimulus (60 Hz, 5 m sec. pulse width, 34 mA intensity) for 0.2 seconds by way of a Grass Stimulator® and constant current unit and a Hunter Timer®. The absence of tonic seizures upon cessation of the stimuli was scored as protection in that animal. The number of animals protected from tonic seizures at a given dose of test drug was determined. […] EXP. THER. 96, 99-113.

[2] = system: pentylenetetrazol-induced convulsions; assay: Metrazole Chemical Challenge (Swinyard Method); assay type: in vivo; conditions: mice; for ED50: Mus musculus, ip, 0.5 h, intraperitoneal, 1/2 hour before Metrazole 80 mg/kg S.C.
Method: as §1, §2
Groups of 8 adult female mice were randomly assigned to dosage groups according to the method of Steel, R. G. D., and Torrie, J. H. (1960) in "Principles and Procedures of Statistics", McGraw-Hill Book Company, Inc., pp 99-100, pp 428-31. Each mouse was identified with a color code on its tail. The test compounds were administered as solutions or suspensions in 10 ml/kg mouse body weight of 0.5% aqueous methyl cellulose within 15 minutes of preparation of the suspension. Metrazole® (pentylenetetrazol) was prepared as a solution in physiological saline. The mice were not fasted prior to the test. Eight mice were tested at each dosage level.
Each mouse received one dose of the test drug (usually 100 mg/kg for screening) in the 0.5% aqueous methylcellulose or the control article (0.5% aqueous methylcellulose alone) intraperitoneally. Metrazole (80 mg/kg S.C.) was then given in a loose fold of skin on the back of the neck, 1/2 hour after the test compound or control article was given. All injections were given in a volume of 10 ml/kg mouse body weight. […] Anticonvulsant data were tabulated as the percent protection, i.e., [formula] […] Hefner Publishing Co.

NC(=O)N1CC(Oc2ccc(C(F)(F)F)cc2Cl)C1 [Example 1, 3-[2-Chloro-4-(trifluoromethyl)phenoxy]-1-azetidinecarboxamide]
ED50 [1]: 8.5 mg/kg | ED50 [2]: 11.5 mg/kg

CNC(=O)N1CC(Oc2ccc(C(F)(F)F)cc2Cl)C1 [Example 2, 3-[2-Chloro-4-(trifluoromethyl)phenoxy]-N-methyl-1-azetidinecarboxamide]
ED50 [1]: 6.4 mg/kg | ED50 [2]: 11.3 mg/kg

C=CCNC(=O)N1CC(Oc2ccc(C(F)(F)F)cc2Cl)C1 [Example 3, 3-[2-Chloro-4-(trifluoromethyl)phenoxy]-N-(2-propenyl)-1-azetidinecarboxamide]
ED50 [1]: 9.5 mg/kg | Metrazole % protected ([2]; dose 10 mg/kg IP): 12.5% | Metrazole % protected ([2]; dose 36 mg/kg IP): 0%

CN(C)C(=O)N1CC(Oc2ccc(C(F)(F)F)cc2Cl)C1 [Example 4, 3-[2-Chloro-4-(trifluoromethyl)phenoxy]-N,N-dimethyl-1-azetidinecarboxamide]
ED50 [1]: 8.2 mg/kg | Metrazole % protected ([2]; dose 31.6 mg/kg IP): 37.5% | Metrazole % protected ([2]; dose 52 mg/kg IP): 0% | Metrazole % protected ([2]; dose 100 mg/kg IP): 0%

CNC(=O)N1CC(Oc2ccccc2C(F)(F)F)C1 [Example 5, 3-[2-(Trifluoromethyl)phenoxy]-N-methyl-1-azetidinecarboxamide]
ED50 [1]: 125 mg/kg | Metrazole % protected ([2]; dose 120 mg/kg IP): 0%

CNC(=O)N1CC(Oc2cccc(C(F)(F)F)c2)C1 [Example 6, N-Methyl-3-[3-(trifluoromethyl)phenoxy]-1-azetidinecarboxamide]
ED50 [1]: 29 mg/kg

CNC(=O)N1CC(Oc2ccc(C(F)(F)F)cc2)C1 [Example 7, 3-(4-Trifluoromethylphenoxy)-N-methyl-1-azetidinecarboxamide]
ED50 [1]: 25.7 mg/kg | ED50 [2]: 33 mg/kg

CNC(=O)N1CC(Oc2ccccc2Cl)C1 [Example 8, 3-(2-Chlorophenoxy)-N-methyl-1-azetidinecarboxamide]
Electroshock % protected ([1]; dose 56.2 mg/kg IP): 0% | Metrazole % protected ([2]; dose 100 mg/kg IP): 0%

CNC(=O)N1CC(Oc2cccc(Cl)c2)C1 [Example 9, 3-(3-Chlorophenoxy)-N-methyl-1-azetidinecarboxamide]
ED50 [1]: 45.5 mg/kg | Metrazole % protected ([2]; dose 100 mg/kg IP): 37.5%

CNC(=O)N1CC(Oc2ccc(Cl)cc2)C1 [Example 10, 3-(4-Chlorophenoxy)-N-methyl-1-azetidinecarboxamide]
ED50 [1]: 23.8 mg/kg | ED50 [2]: 50 mg/kg

NC(=O)N1CC(Oc2ccc(Cl)cc2Cl)C1 [Example 11, 3-(2,4-Dichlorophenoxy)-1-azetidinecarboxamide]
Electroshock % protected ([1]; dose 17.8 mg/kg IP): 0% | Electroshock % protected ([1]; dose 31.6 mg/kg IP): 100% | ED50 [2]: 31.6 mg/kg

CN(C)C(=O)N1CC(Oc2ccc(Cl)cc2Cl)C1 [Example 12, 3-(2,4-Dichlorophenoxy)-N,N,-dimethyl-1-azetidinecarboxamide]
Electroshock % protected ([1]; dose 17.8 mg/kg IP): 0% | Electroshock % protected ([1]; dose 31.6 mg/kg IP): 100%

CNC(=O)N1CC(Oc2ccc(Cl)cc2Cl)C1 [Example 13, 3-(2,4-Dichlorophenoxy)-N-methyl-1-azetidinecarboxamide]
ED50 [1]: 18.5 mg/kg | ED50 [2]: 40.9 mg/kg

Cc1cccc(Cl)c1OC1CN(C(N)=O)C1 [Example 14, 3-(2-Chloro-6-methylphenoxy)-1-azetidinecarboxamide]
ED50 [1]: 81.5 mg/kg

Cc1cccc(Cl)c1OC1CN(C(=O)N(C)C)C1 [Example 15, 3-(2-Chloro-6-methylphenoxy)-N,N-dimethyl-1-azetidinecarboxamide]
Electroshock % protected ([1]; dose 31.6 mg/kg IP): 37.5-62.5%

CNC(=O)N1CC(Oc2c(C)cccc2Cl)C1 [Example 16, 3-(2-Chloro-6-methyphenoxy)-N-methyl-1-azetidinecarboxamide]
ED50 [1]: 53 mg/kg

CNC(=O)N1CC(Oc2ccc(F)cc2Cl)C1 [Example 17, 3-(2-Chloro-4-fluorophenoxy)-N-methyl-1-azetidinecarboxamide]
ED50 [1]: 44.5 mg/kg | ED50 [2]: 32.8 mg/kg

CNC(=O)N1CC(Oc2cc(C(F)(F)F)ccc2Cl)C1 [Example 18, 3-[2-Chloro-5-(trifluoromethyl)phenoxy]-N-methyl-1-azetidinecarboxamide]
Electroshock % protected ([1]; dose 56.2 mg/kg IP): 37.5% | Electroshock % protected ([1]; dose 100 mg/kg IP): 50%

CNC(=O)N1CC(Oc2cc(C(F)(F)F)ccc2F)C1 [Example 19, 3-[2-Fluoro-5-(trifluoromethyl)phenoxy]-N-methyl-1-azetidine-carboxamide]
Electroshock % protected ([1]; dose 31.6 mg/kg IP): 50% | Electroshock % protected ([1]; dose 56.2 mg/kg IP): 50%

CNC(=O)N1CC(Oc2ccc(Cl)c(Cl)c2)C1 [Example 20, 3-(3,4-Dichlorophenoxy)-N-methyl-1-azetidinecarboxamide]
ED50 [1]: 39.5 mg/kg | ED50 [2]: 49.5 mg/kg
